Data taken from US20050208037A1, “Thioredoxin increases redox-cycling of anticancer agents thereby sensitizes cancer cells to apoptosis” (Board of Regents, The University of Texas System, priority 2003, published 2005).
Where a name gives a salt, the structure may show the parent alone.

How the values were obtained:
[1] = cited from earlier work
p53 in Trx9 cells [2] = assay: Western blotting of p53 and phospho-p53 (ser-15); format: cell-based, human; details: daunomycin treated Trx9 cells, 4 hr
From the text: Western blotting. Equal amounts of protein were resolved on 10% SDS-polyacrylamide gel electrophoresis, and transferred to nitrocellulose membrane (Hybond-ECL, Amersham Pharmacia Biotech) immunoblotted with anti-p53 or anti-p53 phospho ser-15 (Cell Signaling Technology, Beverly, Mass.) and visualized using Lumiglo system with antirabbit conjugated HRP. For cytochrome c determination the cytosolic protein was resolved on 15% SDS-PAGE and immunoblotted using anti-cytochrome c (BD Pharmingen, San Diego, Calif.) and visualized using the ECL system (Amersham Pharmacia Biotech, Piscataway, N.J.) and anti-mouse IgG conjugated HRP (Santa Cruz Biotech, California).

p53 in Trx9 cells [3] = assay: Electrophoretic mobility shift assay of p53 DNA binding; format: cell-based, human; details: daunomycin treated Trx9 cells, 4 hr
Method: Nuclear Extract preparation. Nuclear extract was prepared as described previously (Das, 2001). […] The extracts were then centrifuged at 14,000 rpm for 25 min and the supernatant was saved as nuclear extract in −70° C. for further experiments. Protein was quantified using Bradford protein assay (Biorad).
Electrophoretic Mobility shift assay (EMSA). For the EMSA the p53 consensus oligonucleotide was obtained from Genosys 5′-[…]-3′ (SEQ ID NO:9) and end labeled using T4 Poly nucleotide kinase (New England Biolabs, Beverly, Mass.) and [γ-^32P] ATP (Perkin Elmer, Boston, Mass.) in 10× kinase buffer supplied with the enzyme. […] The nuclear protein was separated by electrophoresis using 4% native polyacrylamide gel and 0.25× of TBE (Tris-Borate-EDTA) as running buffer. The gels were dried and exposed to Kodax Biomax X-ray film overnight.

[4] = tested on: Trx9 cells (MCF-7 clones expressing thioredoxin); assay: Superoxide production in cell lysate by SOD-inhibitable reduction of ferricytochrome c; format: biochemical, human; details: for inhibition of SOD-inhibitable rate of O2— generation: inhibitor 50 μM, then 10 μM doxorubicin
Method: Determination of superoxide production by reduction of ferricytochrome c. Superoxide production was measured as superoxide dismutase (SOD) inhibitable reduction of ferricytochrome c (Azzi et al. 1975). Cells were sonicated in potassium phosphate buffer (0.05M, pH 7.8 plus 1 mM EDTA), centrifuged and the supernatant was used for the assay. To determine the superoxide generation in the cell lysate, the supernatant was incubated with 10 μM drug and 10 μM cytochrome c, with or without 1U SOD to determine SOD inhibitable rate. The specificity of thioredoxin mediated superoxide generation in the supernatant was detected by pre-incubation of cell lysates with anti-human thioredoxin antibody (American Diagnostica, Greenwich, Conn.) for 15 min. All reactions were performed in triplicate. The reduction of ferricytochrome c was measured both in kinetic and end point mode with path check on for 1 hr duration at a wavelength of 550 nm using a Spectramax 190 plate reader (Molecular Devices). Total protein was quantified using Bradford protein assay (Biorad) and the superoxide generation was determined per milligram of protein in the extracts.

[5] = tested on: Trx9 cells (MCF-7 clones expressing thioredoxin); assay: Cytochrome c release (cytosolic extract, western blotting); format: cell-based, human; details: Trx9 compared to vector-only cells; daunomycin 1 μM, 16 h
Method: Preparation of cytosolic extract by sub cellular fractionation. Cytosolic preparation was done as described earlier (Yang et al., 1997). Briefly, cells were harvested by centrifugation (600×g) and washed once with ice cold PBS for 10 min at 4° C. The cell pellets were resuspended in five volumes of fractionation buffer (250 mM sucrose containing 20 mM HEPES-KOH, 10 mM KCl, 1.5 mM each of sodium-EDTA and sodium- EGTA, 1 mM MgCl2, 1 mM dithiothreitol, 0.1 mM PMSF and cocktail of protease inhibitors) and incubated on ice for 30 min. Cells were then homogenized using a dounce homogenizer with type B pestle and centrifuged twice at 800×g for 10 min at 4° C. The supernatant was centrifuged at 10,000×g for 15 min at 4° C., and the resulting supernatant was then transferred to fresh tube and centrifuged at 100,000×g […] for 1 hr at 4° C. The final supernatant obtained in this centrifugation was designated as cytosolic extract and was stored in −70° C. for further analysis.
Western blotting. Equal amounts of protein were resolved on 10% SDS-polyacrylamide gel electrophoresis, and transferred to nitrocellulose membrane (Hybond-ECL, Amersham Pharmacia Biotech) immunoblotted with anti-p53 or anti-p53 phospho ser-15 (Cell Signaling Technology, Beverly, Mass.) and visualized using Lumiglo system with antirabbit conjugated HRP. […]

[6] = tested on: Trx9 cells (MCF-7 clones expressing thioredoxin); assay: Cell proliferation assay by BrdU ELISA; format: cell-based, human; details: daunomycin 1 μM, 16 h
Method: (§1) Cell proliferation assay. Cell proliferation assay by BrdU ELISA kit was purchased from Roche Molecular Biochemicals (Indianapolis, Ind.). For this assay cells were seeded to a final density of 5000 per well in 96 well plates and allowed to attach overnight, […] BrdU for 4-6 hr, and detected using Tetramethylbenzedine as substrate with Anti-BrdU POD at 370 nm and reference wavelength 492 nm in Spectramax 190 plate reader.

[7] = tested on: vector cells (vector-only MCF-7); assay: Cell proliferation assay by BrdU ELISA; format: cell-based, human; details: daunomycin 1 μM, 16 h
Method: as §1

A549 cells = assay: ROS detection by DCF-DA fluorescence; format: cell-based, human; details: daunomycin only (1 μM)
Method: In situ detection of superoxide by fluorescent probe DiCarboxyFluorescein-DiAcetate (DCF-DA). […] Cells were pre-incubated with 20 μM DCF-DA (Sigma, St. Louis, Mo.) in 20 mM Hepes in Phosphate Buffered Saline (PBS) containing bovine serum albumin (BSA, 5 mg/ml) at 37° C. for 30 min followed by washing with PBS buffer, and the drug was added and observed for 10-15 min in a Nikon laser confocal microscope using laser beam wavelength 488 nm analyzed by Ultraview software (Perkin-Elmer).

[8] = tested on: Trx9 cells (MCF-7 clones expressing thioredoxin); assay: TUNEL assay; format: cell-based, human; details: Trx9 compared to vector cells; daunomycin 1 μM, 16 h
From the text: TUNEL assay. Apoptotic cells were detected using In Situ Cell Death detection, POD kit (Roche Molecular Biochemicals, Indianapolis, Ind.). Apoptotic DNA strand breaks were identified by labeling 3′-OH termini with fluorescein-dUTP using Terminal deoxy Transferase as per manufacturer's protocol. For this assay cells were allowed to adhere overnight in chambered glass slides (Nunc) to a final density of 25,000 cells per well. Followed by treatment with the appropriate concentration of drugs the media was removed and washed twice with PBS containing 1% BSA and the cells fixed in 4% paraformaldehyde for 30 min and washed with PBS containing 1% BSA. The cells were then permeabilized with 0.1% Triton X-100 in 0.1% sodium citrate for 2 min on ice and washed twice with PBS containing 1% BSA. The labeling reaction was performed using FITC labeled dUTP along with other nucleotides by terminal deoxynucleotidyl transferase for 60 mins in dark at 37° C. in humidified chamber. The cells were washed with PBS-1% BSA, mounted onto a slide, and the incorporated fluorescein-dUTP was analyzed using Nikon laser confocal microscope.

[9] = tested on: Trx9 cells (MCF-7 clones expressing thioredoxin); assay: Flow cytometry, apoptosis as sub-G1 peak (propidium iodide); format: cell-based, human; details: daunomycin 1 μM, 16 h
Method: (§2) Flow cytometry. […] The cells were washed again with PBS containing 1% FBS and resuspended in 500 μl of PBS followed by fixing in 7.5 ml of ice-cold ethanol 70% added dropwise while vortexing and stored in −20° C. overnight. After two washes with PBS containing 1% FBS and resuspended in same buffer and stained with Propidium Iodide 10 μg/ml (Sigma, St. Louis, Mo.) in the presence of RNase 250 μg/ml at 37° C. for 30 min in dark. Stained cells were analyzed using Epics Elite ESP Coulter, using argon laser at 488 nm wavelength. Flow cytometric results were analyzed and apoptosis was defined as ‘sub G1’ peak (Gutierrez, 2000) using Multicycle software.

[10] = tested on: vector cells (vector-only MCF-7); assay: as above; format: cell-based, human; details: daunomycin 1 μM, 16 h
Method: as §2

[11] = biological target: T1, E. coli thioredoxin reductase-thioredoxin system (Escherichia coli, UniProt P0A9P4); assay: Superoxide detection by cytochrome c reduction assay with thioredoxin system; format: biochemical
T1 construct: purchased American Diagnostica Inc (thioredoxin reductase); Promega Inc (thioredoxin)
Method: Superoxide detection by cytochrome c reduction assay. Superoxide (O2—) generated in the process of redox-cycling was detected by SOD inhibitable rate of ferricytochrome c reduction (Das et al., 2000). The reaction mixture contained 0.05 M potassium phosphate buffer (pH 7.78), 1 mM EDTA, 10 μM cytochrome c and 200 μM NADPH. […] The rate of […] of cytochrome c was measured at 550 nm for 0-15 minutes using Shimadzu UV-1601PC in kinetic mode. Reaction blank contained potassium phosphate buffer, cytochrome c and NADPH with or without SOD, and controls included 0.35-0.7 μg TR and /or Trx in buffer. All reactions were performed in triplicate.

[12] = tested on: Trx9 cells (MCF-7 clones expressing thioredoxin); assay: XTT cytotoxicity assay; format: cell-based, human; details: percent control of untreated cells
Method: (§3) XTT assay. Cytotoxicity was estimated using XTT based in vitro toxicology assay kit, (Sigma Chemical Co.). This assay is based on the metabolic capacity of viable cells; the mitochondrial dehydrogenases convert XTT yielding orange formazan crystal soluble in aqueous media that is estimated spectrophotmetrically at 450 nm and a reference wavelength at 690. The assay was performed 48 hr post treatment; cells were washed and XTT added in media free of serum and phenol red, incubated for 2-4 hr and analyzed in Spectramax 190 plate reader.

[13] = tested on: vector cells (vector-only MCF-7); assay: XTT cytotoxicity assay; format: cell-based, human; details: percent control of untreated cells
Method: as §3

[14] = tested on: Trx9 cells (MCF-7 clones expressing thioredoxin); assay: Colony formation assay (clonogenic survival); format: cell-based, human; details: 0.1 μM daunomycin, end of 14 days
Method: (§4) Colony formation assay. For determination of clonogenic survival, the cells were seeded to a final density of 1×10^6 in 100 mm dishes, allowed to attach overnight, and the following day treated with the appropriate concentration of the drug for 48 hr. The cells were trypsinized, counted and seeded to final density of 25,000 viable cells in 100 mm dishes and allowed to grow for 14 days followed by washing and staining with crystal violet.

[15] = tested on: vector cells (vector-only MCF-7); assay: Colony formation assay (clonogenic survival); format: cell-based, human; details: 0.1 μM daunomycin, end of 14 days
Method: as §4

T1 sequence (P0A9P4 2-321): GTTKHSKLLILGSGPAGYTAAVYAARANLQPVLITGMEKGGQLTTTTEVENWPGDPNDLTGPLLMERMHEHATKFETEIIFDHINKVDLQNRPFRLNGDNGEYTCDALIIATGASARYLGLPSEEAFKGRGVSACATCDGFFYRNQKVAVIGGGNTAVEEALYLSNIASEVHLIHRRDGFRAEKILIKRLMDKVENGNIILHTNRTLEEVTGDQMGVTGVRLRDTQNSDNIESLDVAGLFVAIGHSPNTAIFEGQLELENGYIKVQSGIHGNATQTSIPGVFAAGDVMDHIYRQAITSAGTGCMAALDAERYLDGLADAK

Structure (SMILES): COc1cccc2c1C(=O)c1c(O)c3c(c(O)c1C2=O)C[C@@](O)([C@H](C)O)C[C@@H]3O[C@H]1C[C@H](N)[C@H](O)[C@H](C)O1 [daunorubicinol]
- half-life of active metabolite ([1]; metabolite of daunorubicin): about 27 hr

Structure (SMILES): O=C(O)c1ccc(/C2=C3\C=CC(=N3)/C(c3ccc(C(=O)O)cc3)=c3/cc/c4[n]3[Mn]([Cl])[n]3c2ccc3/C(c2ccc(C(=O)O)cc2)=C2/C=CC(=N2)\C=4c2ccc(C(=O)O)cc2)cc1 [MnTBAP]
- effect on p53 ser-15 phosphorylation (p53 in Trx9 cells [2]): no appreciable decrease
- reduction in p53 DNA binding activity (densitometric analysis) (p53 in Trx9 cells [3]): about 30%

Structure (SMILES): Nc1ncnc2c1ncn2[C@@H]1O[C@H](COP(=O)(O)O)[C@@H](O)[C@H]1OP(=O)(O)O [PAMP, 2′-Phospho-5′-AMP]
- inhibition of SOD-inhibitable rate of O2— generation ([4]; Trx9 cells): 76%

Structure (SMILES): Nn1nnc2ccccc21 [ABT, 1-Aminobenzotriazole]
- inhibition of SOD-inhibitable rate of O2— generation ([4]; Trx9 cells): 54%

Structure (SMILES): COc1cccc2c1C(=O)c1c(O)c3c(c(O)c1C2=O)C[C@@](O)(C(C)=O)C[C@@H]3O[C@H]1C[C@H](N)[C@H](O)[C@H](C)O1 [daunomycin, 5,12-Naphthacenedione, (8S-cis)-8-acetyl-10-[(3-amino-2,3,6-trideoxy-a-L-lyxo-hexanopyranosyl)oxy]-7,8,9,10-tetrahydro-6,8,11-trihydroxy-10-methoxy-, hydrochloride]
- cytochrome c release [5]: increased cytochrome c release
- level of BrdU incorporated [6]: 60%
- level of BrdU incorporated [7]: 76%
- secreted into the bile ([1]; in vivo): ~40%
- elimination half-life ([1]; intravenous): about 19 hr
- absorption ([1]; oral): poor
- ROS generation (DCF-DA) (A549 cells): ROS generation was increased
- O2— production ([4]; Trx9 compared to vector-transfected cells, 10 μM drug): significantly higher level of O2—
- TUNEL-positive cells [8]: higher number of TUNEL positive Trx9 cells
- percentage of apoptotic cells (sub-G1) [9]: 23%
- percentage of apoptotic cells (sub-G1) [10]: 6%
- levels of O2— generated ([11]; drug 10 μM with thioredoxin reductase alone): significantly higher levels of O2—
- SOD inhibitable rate of ferricytochrome c reduction ([11]; drug alone, 10 μM): did not show significant level
- percentage of cell death (XTT) [12]: 48%
- percentage of cell death (XTT) [13]: 16%
- clonogenic survival [14]: failed to propagate into colonies
- clonogenic survival [15]: able to propagate into several colonies

Structure (SMILES): c1ccc2c(c1)[I+]c1ccccc1-2 [DPIC, dipheyleneiodonium]
- effect on p53 ser-15 phosphorylation (p53 in Trx9 cells [2]): abolished
- effect on p53 DNA binding (p53 in Trx9 cells [3]; DPIC 50 μM): abolished
- effect on generation of O2— ([4]; Trx9 cells, DPIC 25 or 50 μM pre-incubation, 10 μM doxorubicin): inhibited generation of O2—
